Reference: PMC9000250, “Computational Methods for Understanding the Selectivity and Signal Transduction Mechanism of Aminomethyl Tetrahydronaphthalene to Opioid Receptors” (Molecules, 2022)
Values joined by “and” are separate entries in the source; they are usually repeats but may differ in a detail not shown here. Equal values may be shown once. Read-outs that look alike come from different tables or passages of the source.

What was measured:
DOR [1] = target: T1, DOR (Homo sapiens, UniProt P41143); parameters: host or cells: CHO cells, stably transfected; membranes; method as in PMID 27096047
T1 sequence (P41143 whole entry): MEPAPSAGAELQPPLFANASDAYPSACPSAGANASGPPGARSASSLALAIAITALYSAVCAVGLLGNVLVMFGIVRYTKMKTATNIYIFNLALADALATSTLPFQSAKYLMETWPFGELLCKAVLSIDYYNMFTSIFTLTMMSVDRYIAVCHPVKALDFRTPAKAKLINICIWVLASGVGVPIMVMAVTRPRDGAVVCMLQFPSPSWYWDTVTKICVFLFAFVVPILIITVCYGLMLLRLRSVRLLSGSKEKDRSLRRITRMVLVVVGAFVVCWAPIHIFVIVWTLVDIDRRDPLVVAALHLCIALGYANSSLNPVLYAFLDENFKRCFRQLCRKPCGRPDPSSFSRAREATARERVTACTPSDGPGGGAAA

KOR [2] = target: T2, KOR (Homo sapiens, UniProt P41145); parameters: expressed in transfected cells; method as in PMID 27096047; conditions: stimulation of [35S]GTPγS binding; NA = no activity; cited from earlier work
T2 sequence (P41145 whole entry): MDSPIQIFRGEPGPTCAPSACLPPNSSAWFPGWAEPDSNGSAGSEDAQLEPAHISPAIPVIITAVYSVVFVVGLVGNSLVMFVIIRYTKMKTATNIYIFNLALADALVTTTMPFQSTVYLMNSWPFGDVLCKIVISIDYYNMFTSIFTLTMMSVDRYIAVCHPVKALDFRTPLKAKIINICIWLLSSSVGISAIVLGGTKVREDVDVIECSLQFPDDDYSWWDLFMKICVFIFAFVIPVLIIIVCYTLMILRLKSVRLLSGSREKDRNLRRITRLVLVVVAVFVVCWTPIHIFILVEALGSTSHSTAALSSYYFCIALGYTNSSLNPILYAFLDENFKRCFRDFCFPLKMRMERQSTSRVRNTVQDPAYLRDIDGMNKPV

KOR [3] = target: T2, KOR; parameters: host or cells: CHO cells, stably transfected; membranes; method as in PMID 27096047; conditions: cited from earlier work; for Ki: read-out: Ki (±SEM) KOR
human MOR [4] = target: T3, human MOR (Homo sapiens, UniProt P35372); parameters: method as in PMID 27096047; conditions: cited from earlier work
T3 sequence (P35372 whole entry): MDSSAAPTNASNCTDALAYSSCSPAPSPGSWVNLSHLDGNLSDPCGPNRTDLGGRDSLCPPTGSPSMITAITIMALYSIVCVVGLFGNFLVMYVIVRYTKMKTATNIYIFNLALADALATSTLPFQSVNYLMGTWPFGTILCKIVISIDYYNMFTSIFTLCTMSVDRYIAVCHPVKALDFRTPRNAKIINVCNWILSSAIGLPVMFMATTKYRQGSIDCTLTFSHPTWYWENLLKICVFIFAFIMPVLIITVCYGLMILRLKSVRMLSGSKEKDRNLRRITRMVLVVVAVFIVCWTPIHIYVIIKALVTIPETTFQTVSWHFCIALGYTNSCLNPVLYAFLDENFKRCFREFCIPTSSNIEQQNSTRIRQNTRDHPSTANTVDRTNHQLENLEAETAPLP

human MOR [5] = target: T3, human MOR; assay: [35S]GTP-γ-S functional assay, CHO cell membranes; assay type: biochemical; conditions: stimulation of [35S]GTPγS binding; NA = no activity
Experimental: In a final volume of 0.5 mL, various concentrations of each tested compound were incubated with […] (μ) of CHO cell membranes that stably expressed the human MOR. The assay buffer consisted of 50 mM Tris-HCl, pH 7.4, 3 mM MgCl2, 0.2 mM EGTA, […] and 100 mM NaCl. The final concentration of [^35S]GTP-γ-S was 0.08 nM. Nonspecific binding was measured by the inclusion of […] GTP-γ-S. Binding was initiated by the addition of the membranes. After an incubation period of 60 min at 30 °C, the reactions were terminated by rapid filtration, and the radioactivity was determined by liquid scintillation counting.

DOR [6] = target: T1, DOR; parameters: expressed in transfected cells; method as in PMID 27096047; conditions: stimulation of [35S]GTPγS binding; NA = no activity; cited from earlier work
DOR [7] = target: T1, DOR; assay: Radioligand binding assay, displacement of [3H]DPDPE from CHO cell membranes; parameters: host or cells: CHO cells, stably transfected; membranes; conditions: for Ki: [3H]DPDPE, CHO membranes, read-out: Ki (±SEM) DOR; for activity / affinity for DOR, in words: in vitro
KOR [8] = target: T2, KOR; assay: Radioligand binding assay, displacement of [3H]U69593 from CHO cells; parameters: host or cells: CHO cells, stably transfected; membranes; conditions: for inhibition at 1 µM: displacement of [3H]U69593 at 1.0 μM
human MOR [9] = target: T3, human MOR; assay: Radioligand binding assay, displacement of [3H]DAMGO from CHO cell membranes

SMILES: CN(C)CC1CCc2cc(-c3ccccc3)ccc2C1(O)c1cccc(O)c1 (stereo not shown) [FW-AII-OH-1]
- Inhibition (%) DOR (DOR [1]; displacement of [3H]DPDPE at 1.0 μM; cited from earlier work): 22.0 ± 1.0%
- EC50 (KOR [2]): 0.58 ± 0.084 µM
- KOR Emax% (KOR [2]): 187 ± 2%
- Ki (KOR [3]): 0.141 µM and 0.14 µM
- Inhibition (%) MOR (human MOR [4]; displacement of [3H]DAMGO at 1.0 μM): 20 ± 1.0%

SMILES: CN(C)CC1CCCCC1(O)c1cccc(O)c1 (stereo not shown) [M1, reference compound]
- Emax (human MOR [5]): 226 ± 9%
- Ki (DOR [1]; read-out: Ki (±SEM) DOR; [3H]DPDPE, CHO membranes; >10^4 = no binding affinity up to 10^4 nM; cited from earlier work): > 10 µM
- Ki (KOR [3]; [3H]U69593, CHO cells, >10^4 = no binding affinity up to 10^4 nM): > 10 µM

SMILES: COc1ccccc1-c1ccc2c(c1)CCC(CN(C)C)C2(O)c1cccc(O)c1 (stereo not shown) [FW-AII-OH-2]
- Ki (DOR [1]; [3H]DPDPE, CHO membranes; >10^4 = no binding affinity up to 10^4 nM; read-out: Ki (±SEM) DOR; cited from earlier work): 0.00464 µM and 0.0047 µM
- Inhibition (%) KOR (KOR [3]; displacement of [3H]U69593 at 1.0 μM): 17.7 ± 0.1%
- DOR Emax% (DOR [6]): 230 ± 7%
- EC50 (DOR [6]): 0.0093 ± 0.0005 µM
- Ki (human MOR [4]; [3H]DAMGO, CHO membranes, >10^4 = no binding affinity up to 10^4 nM, read-out: Ki (±SEM) MOR): > 10 µM

SMILES: C[C@@H](NC(=O)[C@@H](N)Cc1ccc(O)cc1)C(=O)NCC(=O)N(C)[C@@H](Cc1ccccc1)C(=O)NCCO [DAMGO]
- Emax (human MOR [5]): 205 ± 2.05%

SMILES: COc1ccccc1-c1ccc2c(c1)CCC(CN(C)CCc1ccccc1)C2(O)c1cccc(O)c1.Cl (stereo not shown) [FW-DI-OH-2, 1-(3-hydroxyphenyl)-6-(2-methoxyphenyl)-2-((methyl(phenethyl)amino)methyl)-1,2,3,4-tetrahydronaphthalen-1-ol hydrochloride]
- Ki (DOR [7]): 0.0087 µM and 0.00865 µM
- activity / affinity for DOR, in words (DOR [7]): high affinitive
- inhibition at 1 µM (KOR [8]): 30.1 ± 2.1%
- melting point: 200.2 to 202.4 °C

SMILES: CN(CCc1ccccc1)CC1CCc2cc(-c3ccccc3)ccc2C1(O)c1cccc(O)c1.Cl (stereo not shown) [FW-DIII-OH-2, 1-(3-hydroxyphenyl)-2-((methyl(phenethyl)amino)methyl)-6-phenyl-1,2,3,4-tetrahydronaphthalen-1-ol hydrochloride]
- Ki (DOR [7]): 0.228 µM and 0.229 µM
- activity / affinity for DOR, in words (DOR [7]): moderate affinity
- inhibition at 1 µM (KOR [8]): 13.5 ± 0.1%
- melting point: 202.1 to 204.6 °C

SMILES: CN(C)CC1CCc2ccccc2C1(O)c1cccc(O)c1 (stereo not shown) [FW-1]
- inhibition at 1 µM (DOR [7]): 21.7 ± 2.9%
- activity / affinity for DOR, in words (DOR [7]): not be active
- activity for MOR, in words (human MOR [9]; in vitro): not be active
- Ki (human MOR [9]; read-out: Ki (±SEM) MOR): > 10 µM
- inhibition at 1 µM (KOR [8]): 56.3 ± 4.9%
- activity for KOR, in words (KOR [8]; in vitro): not be active
